Source: patent publication US20220023289A1, “Application Of Pyrroloquinoline Quinone In Preparation Of Medicament Used For Preventing And Treating Acute Altitude Sickness And Acute Altitude Hypoxia Injury” (priority 2018, published 2022)

Columns and labels:
[1] = test system: rats exposed to acute altitude hypoxia; test: Serum homocysteine in rats exposed to acute altitude hypoxia; format: in vivo, Wistar rat
Method: (§1) Select healthy Wistar rats weight 160-200 g, half female and half male. After feeding for 3 days, these Wistar rats are randomly divided into ten groups according to their body weight, each group has 16±2 rats. The groups are divided as follows: five groups of the hypoxic exposure drug test group, respectively, are given 0.91 mg/kg, 1.83 mg/kg, 3.66 mg/kg, 7.31 mg/kg, and 14.63 mg/kg drugs. […] After continuous intragastric administration for 7 days, the animals in the hypoxic exposure group are simultaneously put into the decompression and hypoxia compound experimental chamber, the hatch is closed, and the pressure is reduced at a speed of 10 m/s. After being raised to an altitude of 6000 m and maintained for 8 hours, the speed in 10 m/s drops is reduced to normal altitude, open the hatch, and then take out the animal, collect blood samples (after standing for 1 hour, the supernatant is centrifuged and stored at −20° C.), and liver tissue samples. Detection indicator includes body weight, serum blood glucose, ATP, lactic acid, endothelin, nitric oxide, SOD, CO, MDA related to oxidative stress, and total protein, albumin, triglycerides, total cholesterol, high-density lipoprotein cholesterol, low-density lipoprotein cholesterol, glutamic pyruvic transaminase, total bilirubin, gluamic oxalacetic transaminase, serum urea nitrogen, creatinine, uric acid, lactate dehydrogenase, creatine kinase, α-hydroxybutyrate dehydrogenase; liver ATP, hepatic glycogen. Except that the formal oxygen control animal group is not put into the decompression and hypoxia compound experimental chamber, other experimental conditions and detection indicators are the same.
(§2) Measure blood glucose, total protein, albumin, triglycerides, total cholesterol, high-density lipoprotein cholesterol, low-density lipoprotein cholesterol, glutamic-pyruvic transaminase, total bilirubin, glutamic oxalacetic transaminase, serum urea nitrogen, creatinine, uric acid, lactate dehydrogenase, creatine kinase, α-hydroxybutyrate dehydrogenase, blood homocysteine by using an automatic blood biochemical analyzer.

[2] = Mice weight before hypoxia tolerance test of simulated 10000 m altitude acute decompression
[3] = test system: rats exposed to acute altitude hypoxia; test: Liver function of rats exposed to acute altitude hypoxia; format: in vivo, Wistar rat; settings: for Glutamic oxalacetic transaminase / Glutamic-pyruvic transaminase: hypoxia
Method: as §1, §2

[4] = administration for 14 days, 1.32 mg/kg
[5] = administration for 14 days, 2.64 mg/kg
[6] = administration for 14 days, 5.28 mg/kg
[7] = administration for 14 days, 10.56 mg/kg
[8] = administration for 14 days, 21.12 mg/kg
[9] = administration for seven days, 1.32 mg/kg
[10] = administration for seven days, 2.64 mg/kg
[11] = administration for seven days, 5.28 mg/kg
[12] = administration for seven days, 10.56 mg/kg
[13] = administration for seven days, 21.12 mg/kg
[14] = administration for three days, 1.32 mg/kg
[15] = administration for three days, 2.64 mg/kg
[16] = administration for three days, 5.28 mg/kg
[17] = administration for three days, 10.56 mg/kg
[18] = administration for three days, 21.12 mg/kg
[19] = seven days, repeat experiment in male mice, 1.32 mg/kg
[20] = seven days, repeat experiment in male mice, 2.64 mg/kg
[21] = seven days, repeat experiment in male mice, 5.28 mg/kg
[22] = seven days, repeat experiment in male mice, 10.56 mg/kg
[23] = seven days, repeat experiment in male mice, 21.12 mg/kg

**Q.** What does the source list for O=C(O)c1cc(C(=O)O)c2c(n1)C(=O)C(=O)c1cc(C(=O)O)[nH]c1-2 [PQQ, pyrroloquinoline quinone]?
**A.** Serum homocysteine ([1]; female rats, hypoxia, 0.91 mg/kg): 9.43 ± 1.4 µmol/L; Serum homocysteine ([1]; female rats, hypoxia, 1.83 mg/kg): 10.66 ± 2.13 µmol/L; Serum homocysteine ([1]; female rats, hypoxia, 3.66 mg/kg): 9.63 ± 1.97 µmol/L; Serum homocysteine ([1]; female rats, hypoxia, 7.31 mg/kg): 8.6 ± 1.72 µmol/L; Serum homocysteine ([1]; female rats, hypoxia, 14.63 mg/kg): 8.11 ± 1.37 µmol/L; effect on serum homocysteine ([1]; female rats, normoxia): no significant effects; Serum homocysteine ([1]; female rats, normoxia, 3.66 mg/kg): 9.76 ± 1.16 µmol/L; effect on serum homocysteine ([1]; hypoxia exposed female rats): no significant effects; effect on serum homocysteine ([1]; hypoxia exposed male rats): have been not found; Serum homocysteine ([1]; male rats, hypoxia, 0.91 mg/kg): 11.18 ± 2.09 µmol/L; Serum homocysteine ([1]; male rats, hypoxia, 1.83 mg/kg): 13.24 ± 3.87 µmol/L; Serum homocysteine ([1]; male rats, hypoxia, 3.66 mg/kg): 13.65 ± 3.24 µmol/L; Serum homocysteine ([1]; male rats, hypoxia, 7.31 mg/kg): 11.48 ± 2.36 µmol/L; Serum homocysteine ([1]; male rats, hypoxia, 14.63 mg/kg): 12.78 ± 2.87 µmol/L; Mice weight Female 1 day [2, 4]: 16.13 ± 1.20 g; Mice weight Female 7 days [2, 4]: 20.45 ± 1.37 g; Mice weight Male 1 day [2, 4]: 16.36 ± 1.47 g; Mice weight Male 7 days [2, 4]: 22.88 ± 1.78 g; Mice weight Male 14 days [2, 4]: 30.85 ± 2.32 g; Mice weight Female 1 day [2, 5]: 15.75 ± 1.07 g; Mice weight Female 7 days [2, 5]: 21.41 ± 1.62 g; Mice weight Male 1 day [2, 5]: 16.63 ± 1.87 g; Mice weight Male 7 days [2, 5]: 22.58 ± 1.41 g; Mice weight Male 14 days [2, 5]: 28.13 ± 2.70 g; Mice weight Female 1 day [2, 6]: 15.63 ± 1.12 g; Mice weight Female 7 days [2, 6]: 20.47 ± 2.11 g; Mice weight Male 1 day [2, 6]: 17.01 ± 1.91 g; Mice weight Male 7 days [2, 6]: 23.68 ± 2.02 g; Mice weight Male 14 days [2, 6]: 29.44 ± 2.15 g; Mice weight Female 1 day [2, 7]: 15.84 ± 1.33 g; Mice weight Female 7 days [2, 7]: 21.68 ± 1.66 g; Mice weight Male 1 day [2, 7]: 16.58 ± 1.68 g; Mice weight Male 7 days [2, 7]: 23.13 ± 1.73 g; Mice weight Male 14 days [2, 7]: 19.58 ± 2.11 g; Mice weight Female 1 day [2, 8]: 15.68 ± 0.91 g; Mice weight Female 7 days [2, 8]: 20.10 ± 2.07 g; Mice weight Male 1 day [2, 8]: 16.86 ± 1.71 g; Mice weight Male 7 days [2, 8]: 23.67 ± 1.77 g; Mice weight Male 14 days [2, 8]: 30.81 ± 2.76 g; Mice weight Female 1 day [2, 9]: 18.10 ± 1.19 g; Mice weight Female 7 days [2, 9]: 21.36 ± 1.98 g; Mice weight Male 1 day [2, 9]: 18.46 ± 1.36 g; Mice weight Male 7 days [2, 9]: 22.19 ± 2.69 g; Mice weight Female 1 day [2, 10]: 18.19 ± 1.24 g; Mice weight Female 7 days [2, 10]: 21.40 ± 1.92 g; Mice weight Male 1 day [2, 10]: 18.31 ± 1.01 g; Mice weight Male 7 days [2, 10]: 23.51 ± 3.09 g; Mice weight Female 1 day [2, 11]: 17.95 ± 1.28 g; Mice weight Female 7 days [2, 11]: 22.71 ± 1.38 g; Mice weight Male 1 day [2, 11]: 18.38 ± 1.85 g; Mice weight Male 7 days [2, 11]: 22.04 ± 3.25 g; Mice weight Female 1 day [2, 12]: 17.99 ± 1.41 g; Mice weight Female 7 days [2, 12]: 22.66 ± 1.68 g; Mice weight Male 1 day [2, 12]: 18.26 ± 1.15 g; Mice weight Male 7 days [2, 12]: 22.41 ± 1.79 g; Mice weight Female 1 day [2, 13]: 18.35 ± 1.62 g; Mice weight Female 7 days [2, 13]: 23.94 ± 2.10 g; Mice weight Male 1 day [2, 13]: 18.00 ± 1.78 g; Mice weight Male 7 days [2, 13]: 23.54 ± 3.92 g; Mice weight Female [2, 14]: 18.22 ± 1.16 g; Mice weight Male [2, 14]: 19.97 ± 0.84 g; Mice weight Female [2, 15]: 18.79 ± 1.14 g; Mice weight Male [2, 15]: 19.65 ± 0.83 g; Mice weight Female [2, 16]: 18.10 ± 0.76 g; Mice weight Male [2, 16]: 20.16 ± 1.18 g; Mice weight Female [2, 17]: 17.95 ± 1.14 g; Mice weight Male [2, 17]: 19.73 ± 0.85 g; Mice weight Female [2, 18]: 18.48 ± 1.01 g; Mice weight Male [2, 18]: 19.28 ± 0.95 g; Mice weight Male 1 day [2, 19]: 19.84 ± 1.84 g; Mice weight Male 7 days [2, 19]: 27.14 ± 2.66 g; Mice weight Male 1 day [2, 20]: 19.66 ± 1.08 g; Mice weight Male 7 days [2, 20]: 26.78 ± 3.14 g; Mice weight Male 1 day [2, 21]: 19.75 ± 1.27 g; Mice weight Male 7 days [2, 21]: 26.47 ± 2.88 g; Mice weight Male 1 day [2, 22]: 19.90 ± 1.06 g; Mice weight Male 7 days [2, 22]: 27.33 ± 2.27 g; Mice weight Male 1 day [2, 23]: 19.85 ± 1.00 g; Mice weight Male 7 days [2, 23]: 26.73 ± 2.37 g; Mice weight Female ([2]; single dose test, 2.64 mg/kg): 17.25 ± 1.23 g; Mice weight Male ([2]; single dose test, 2.64 mg/kg): 19.71 ± 0.52 g; Mice weight Female ([2]; single dose test, 5.28 mg/kg): 17.32 ± 1.35 g; Mice weight Male ([2]; single dose test, 5.28 mg/kg): 19.51 ± 0.68 g; Mice weight Female ([2]; single dose test, 10.56 mg/kg): 17.24 ± 0.96 g; Mice weight Male ([2]; single dose test, 10.56 mg/kg): 19.16 ± 0.34 g; effect on serum glutamic-pyruvic transaminase and glutamic oxalacetic transaminase activities ([3]; acute hypoxia exposed female rats): has been not found; Glutamic oxalacetic transaminase ([3]; female rats, 0.91 mg/kg): 80.71 ± 12.49 U; Glutamic-pyruvic transaminase ([3]; female rats, 0.91 mg/kg): 29.86 ± 4.30 U; Glutamic oxalacetic transaminase ([3]; female rats, 1.83 mg/kg): 84.71 ± 18.97 U; Glutamic-pyruvic transaminase ([3]; female rats, 1.83 mg/kg): 27.86 ± 6.28 U; Glutamic oxalacetic transaminase ([3]; female rats, 3.66 mg/kg): 82.29 ± 17.75 U; Glutamic-pyruvic transaminase ([3]; female rats, 3.66 mg/kg): 32.57 ± 5.35 U; Glutamic oxalacetic transaminase ([3]; female rats, 7.31 mg/kg): 79.29 ± 16.06 U; Glutamic-pyruvic transaminase ([3]; female rats, 7.31 mg/kg): 32.57 ± 6.37 U; Glutamic oxalacetic transaminase ([3]; female rats, 14.63 mg/kg): 83.00 ± 20.18 U; Glutamic-pyruvic transaminase ([3]; female rats, 14.63 mg/kg): 36.57 ± 8.52 U; effect on aspartate aminotransferase activity ([3]; female rats, normoxia): slightly increasing
